The test system of experiment [1] is wheat leaf rust, Puccinia recondita. Nature of the experiment: whole plant or invertebrate. It counts as in vivo. Particulars: foliar; for pest or weed control at 280.212 g/ha: read-out: % Control (without rain), foliar, 0.25 lb.; for pest or weed control at 1120.85 g/ha: read-out: % Control (without rain), foliar, 1 lb.
For experiment [2] the test system is unchanged. Nature of the experiment: whole plant or invertebrate. It counts as in vivo. Particulars: foliar; for pest or weed control at 280.212 g/ha: read-out: % Control (with 1" of rain), foliar, 0.25 lb., 1" of rain; for pest or weed control at 1120.85 g/ha: read-out: % Control (with 1" of rain), foliar, 1 lb., 1" of rain.

Read-outs that look alike come from different tables or passages of the source.

For the compound `COc1ccc(-n2cnnc2)cc1` [Example 60, 4-(4-methoxyphenyl)-1,2,4-triazole], the results for the pest or weed control at 280.212 g/ha in experiment [1] and in experiment [2] were 100% and 95%, respectively. Moreover, the figures for the pest or weed control at 1120.85 g/ha in experiment [1] and in experiment [2] were 100% and 97%, respectively.

As to `c1csc(-n2cnnc2)n1` [Example 68, 4-(2-thiazyl)-1,2,4-triazole], in experiment [1], the pest or weed control at 280.212 g/ha came out at 66% and the pest or weed control at 1120.85 g/ha is 73%. For the same compound, in experiment [2], the pest or weed control at 280.212 g/ha is 67% and the pest or weed control at 1120.85 g/ha is 96%.

For the compound `CC=CCn1cnnc1` [Example 14, 4-(2-butenyl)-1,2,4-triazole], in experiment [1], the pest or weed control at 280.212 g/ha turned out to be 100% and the pest or weed control at 1120.85 g/ha was 100%. In experiment [2], the pest or weed control at 280.212 g/ha came out at 99% and the pest or weed control at 1120.85 g/ha is 100%.

Turning to `c1cc(-n2cnnc2)ccn1` [Example 61, 4-(4-pyridyl)-1,2,4-triazole], in experiment [1], the pest or weed control at 280.212 g/ha stood at 10% and the pest or weed control at 1120.85 g/ha came out at 10%. Besides, in experiment [2], the pest or weed control at 280.212 g/ha worked out at 0% and the pest or weed control at 1120.85 g/ha is 0%.

Regarding `CCCCCCCCCCn1cnnc1` [Example 12, 4-n-decyl-1,2,4-triazole], in experiment [1], the pest or weed control at 280.212 g/ha was 57% and the pest or weed control at 1120.85 g/ha worked out at 100%. Besides, in experiment [2], the pest or weed control at 280.212 g/ha stood at 48% and the pest or weed control at 1120.85 g/ha amounted to 78%.

In the case of `CCOC(=O)CC(C)n1cnnc1` (centres unmarked) [Example 40, 4-(1-methyl-2-ethoxycarbonylethyl)-1,2,4-triazole], in experiment [1], the pest or weed control at 280.212 g/ha amounted to 40% and the pest or weed control at 1120.85 g/ha is 40%. In addition, in experiment [2], the pest or weed control at 280.212 g/ha came out at 10% and the pest or weed control at 1120.85 g/ha came to 10%.

Regarding `Clc1ccc(OCCn2cnnc2)c(Cl)c1` [Example 29, 4-(2-(2,4-dichlorophenoxy)ethyl)-1,2,4-triazole], in experiment [1], the pest or weed control at 280.212 g/ha turned out to be 0% and the pest or weed control at 1120.85 g/ha came out at 20%. Moreover, in experiment [2], the pest or weed control at 280.212 g/ha was 0% and the pest or weed control at 1120.85 g/ha is 0%.

In the case of `O=[N+]([O-])c1ccc(Sc2nncn2-c2ccccc2)c([N+](=O)[O-])c1` [Example 128, 3-(2,4-dinitrophenylmercapto)-4-phenyl-1,2,4-triazole], in experiment [1], the pest or weed control at 280.212 g/ha came out at 100% and the pest or weed control at 1120.85 g/ha came to 100%. Moreover, in experiment [2], the pest or weed control at 280.212 g/ha worked out at 84% and the pest or weed control at 1120.85 g/ha is 90%.

Take `c1cnc(-n2cnnc2)nc1` [Example 67, 4-(2-pyrimidyl)-1,2,4-triazole]: the pest or weed control at 280.212 g/ha in experiment [1] was found to be 94%. Also, the pest or weed control at 1120.85 g/ha is 87% in experiment [1] and 97% in experiment [2].

For the compound `COC(=O)c1nnc(S)n1C` [Example 96, 3-mercapto-4-methyl-5-methoxycarbonyl-1,2,4-triazole], in experiment [1], the pest or weed control at 280.212 g/ha is 90% and the pest or weed control at 1120.85 g/ha was found to be 98%. Also, in experiment [2], the pest or weed control at 280.212 g/ha was found to be 0% and the pest or weed control at 1120.85 g/ha worked out at 5%.

For the compound `CC(C)(C)CC(C)(C)n1cnnc1S` [Example 81, 3-mercapto-4-t-octyl-1,2,4-triazole], in experiment [1], the pest or weed control at 280.212 g/ha stood at 100% and the pest or weed control at 1120.85 g/ha is 100%. In experiment [2], the pest or weed control at 280.212 g/ha was 53% and the pest or weed control at 1120.85 g/ha was 86%.

With `CCCCn1cnnc1SC(=O)c1cc(Cl)cc(Cl)c1` [Example 120, 3-(3,5-dichlorobenzoylmercapto)-4-n-butyl-1,2,4-triazole], in experiment [1], the pest or weed control at 280.212 g/ha was found to be 100% and the pest or weed control at 1120.85 g/ha is 100%. In experiment [2], the pest or weed control at 280.212 g/ha came out at 98% and the pest or weed control at 1120.85 g/ha was 98%.

Turning to `Clc1ccc(-n2cnnc2)c(Cl)c1` [Example 56, 4-(2,4-dichlorophenyl)-1,2,4-triazole], the pest or weed control at 280.212 g/ha was found to be 90% in experiment [1] and 0% in experiment [2]. In addition, the pest or weed control at 1120.85 g/ha in experiment [1] turned out to be 65%; in experiment [2] it was 5%.

For the compound `CCCCn1c(S)nnc1-c1ccco1` [Example 91, 3-mercapto-4-n-butyl-5-(2-furyl)-1,2,4-triazole], in experiment [1], the pest or weed control at 280.212 g/ha came to 41% and the pest or weed control at 1120.85 g/ha stood at 72%. In addition, in experiment [2], the pest or weed control at 280.212 g/ha was found to be 100% and the pest or weed control at 1120.85 g/ha is 100%.

Regarding `CCN(CC)CCn1cnnc1` [Example 35], the pest or weed control at 280.212 g/ha in experiment [1] was determined as 30%; in experiment [2], 0%. For the same compound, the pest or weed control at 1120.85 g/ha in experiment [1] is 40%; in experiment [2], 10%.

Turning to `Clc1ccc(Cn2cnnc2)c(Cl)c1` [Example 52, 4-(2,4-dichlorobenzyl)-1,2,4-triazole], in experiment [1], the pest or weed control at 280.212 g/ha worked out at 0% and the pest or weed control at 1120.85 g/ha came to 20%. For the same compound, in experiment [2], the pest or weed control at 280.212 g/ha turned out to be 5% and the pest or weed control at 1120.85 g/ha amounted to 10%.

Take `CC(C)(C)n1cnnc1S` [Example 77, 3-mercapto-4-t-butyl-1,2,4-triazole]: the pest or weed control at 280.212 g/ha was 68% in experiment [1] and 57% in experiment [2]. Further, the pest or weed control at 1120.85 g/ha in experiment [1] was 100%; in experiment [2], 80%.

As to `CCCCn1cnnc1SC(=O)CCC` [Example 117, 3-butyrylmercapto-4-n-butyl-1,2,4-triazole], in experiment [1], the pest or weed control at 280.212 g/ha amounted to 100% and the pest or weed control at 1120.85 g/ha was determined as 100%. Moreover, in experiment [2], the pest or weed control at 280.212 g/ha was 95% and the pest or weed control at 1120.85 g/ha was found to be 99%.

Consider `Clc1ccc(SCCn2cnnc2)cc1Cl` [Example 31, 4-(2-(3,4-dichlorothiophenoxy)ethyl)-1,2,4-triazole], for which, in experiment [1], the pest or weed control at 280.212 g/ha amounted to 95% and the pest or weed control at 1120.85 g/ha turned out to be 98%. Also, in experiment [2], the pest or weed control at 280.212 g/ha came to 45% and the pest or weed control at 1120.85 g/ha was 60%.

In the case of `OCCCCn1cnnc1` [Example 21, 4-(4-hydroxybutyl)-1,2,4-triazole], the figures for the pest or weed control at 280.212 g/ha in experiment [1] and in experiment [2] were 10% and 0%, respectively. For the same compound, the figures for the pest or weed control at 1120.85 g/ha in experiment [1] and in experiment [2] were 10% and 0%, respectively.

For `c1nc(-n2cnnc2)n[nH]1` [Example 66, 4-(3-(1,2,4-triazy)-1,2,4-triazole], in experiment [1], the pest or weed control at 280.212 g/ha came to 100% and the pest or weed control at 1120.85 g/ha turned out to be 100%. In addition, the pest or weed control at 280.212 g/ha in experiment [2] came out at 99%.

With `CCCCCCCCn1cnnc1S` [Example 80, 3-mercapto-4-n-octyl-1,2,4-trizole], in experiment [1], the pest or weed control at 280.212 g/ha was 100% and the pest or weed control at 1120.85 g/ha turned out to be 100%. Besides, in experiment [2], the pest or weed control at 280.212 g/ha turned out to be 51% and the pest or weed control at 1120.85 g/ha was found to be 65%.

With “4-(1,3-dihydroxypropyl)-1,2,4-triazole [Example 22]”, the “% Control (without rain)” value in experiment [1] (0.25 lb.) and in experiment [1] (1 lb.) was 90% in each case. Moreover, the “% Control (with 1" of rain)” value in experiment [2] (0.25 lb.) and in experiment [2] (1 lb.) was 0% each time.

For the compound `CCCCn1cnnc1SC(=O)COC` [Example 116, 3-methoxyacetylmercapto-4-n-butyl-1,2,4-triazole], in experiment [1], the pest or weed control at 280.212 g/ha came out at 100% and the pest or weed control at 1120.85 g/ha was 100%. In experiment [2], the pest or weed control at 280.212 g/ha worked out at 95% and the pest or weed control at 1120.85 g/ha came out at 99%.

With `CCCCCn1cnnc1` [Example 7, 4-n-pentyl-1,2,4-triazole], in experiment [1], the pest or weed control at 280.212 g/ha was found to be 100% and the pest or weed control at 1120.85 g/ha stood at 100%. Further, in experiment [2], the pest or weed control at 280.212 g/ha amounted to 100% and the pest or weed control at 1120.85 g/ha worked out at 100%.

For the compound `CCCCn1c(C)nnc1S` [Example 89, 3-mercapto-4-n-butyl-5-methyl-1,2,4-triazole], in experiment [1], the pest or weed control at 280.212 g/ha worked out at 26% and the pest or weed control at 1120.85 g/ha is 51%. Further, in experiment [2], the pest or weed control at 280.212 g/ha amounted to 57% and the pest or weed control at 1120.85 g/ha stood at 80%.

As to `C=CCOCCSc1nncn1CCCC` [Example 108, 3-(2-allyloxyethylmercapto)-4-n-butyl-1,2,4-triazole], in experiment [1], the pest or weed control at 280.212 g/ha is 35% and the pest or weed control at 1120.85 g/ha amounted to 85%. Besides, in experiment [2], the pest or weed control at 280.212 g/ha amounted to 25% and the pest or weed control at 1120.85 g/ha came to 40%.

Turning to `Clc1ccc(SCCn2cnnc2)cc1` [Example 30, 4-(2-(4-chlorothiophenoxy)ethyl)-1,2,4-triazole], in experiment [1], the pest or weed control at 280.212 g/ha was 90% and the pest or weed control at 1120.85 g/ha worked out at 95%. In experiment [2], the pest or weed control at 280.212 g/ha stood at 35% and the pest or weed control at 1120.85 g/ha worked out at 75%.

On to `c1ccc2sc(-n3cnnc3)nc2c1` [Example 69, 4-(2-benzothiazyl)-1,2,4-triazole], for which, in experiment [1], the pest or weed control at 280.212 g/ha stood at 100% and the pest or weed control at 1120.85 g/ha was determined as 100%. Moreover, in experiment [2], the pest or weed control at 280.212 g/ha came out at 98% and the pest or weed control at 1120.85 g/ha came to 98%.

As for `Cn1c(O)nnc1S` [Example 86, 3-mercapto-4-methyl-5-hydroxy-1,2,4-triazole], the pest or weed control at 280.212 g/ha in experiment [1] was determined as 96%; in experiment [2] it was 63%. For the same compound, the pest or weed control at 1120.85 g/ha in experiment [1] came to 99%; in experiment [2], 63%.

In the case of `CCCCn1cnnc1SC(=O)c1ccccc1Br` [Example 118, 3-(2-bromobenzoylmercapto)-4-n-butyl-1,2,4-triazole], in experiment [1], the pest or weed control at 280.212 g/ha amounted to 100% and the pest or weed control at 1120.85 g/ha stood at 100%. In experiment [2], the pest or weed control at 280.212 g/ha was 100% and the pest or weed control at 1120.85 g/ha turned out to be 100%.

(Values after patent US4120864A, “1,2,4-4H-triazole derivatives” (Rohm and Haas Company, priority 1972, dated 1978).)
